Measured values reported in ChEMBL document CHEMBL3596169, “Pyridine hydroxamic acids are specific anti-HCV agents affecting HDAC6” (Bioorg Med Chem Lett, 2015).
Activity calls are given as the source filed them. The rule behind the calls is not given here.

Key:
[1] = target: T1, Protein deacetylase HDAC6 (Homo sapiens) (UniProt Q9UBN7); experiment: Inhibition of HDAC6 in human Huh-luc/neo7 cells assessed as alpha-tubulin acetylation at 3 to 24 uM by Western blotting analysis; type: cell-based
T1 sequence (whole entry): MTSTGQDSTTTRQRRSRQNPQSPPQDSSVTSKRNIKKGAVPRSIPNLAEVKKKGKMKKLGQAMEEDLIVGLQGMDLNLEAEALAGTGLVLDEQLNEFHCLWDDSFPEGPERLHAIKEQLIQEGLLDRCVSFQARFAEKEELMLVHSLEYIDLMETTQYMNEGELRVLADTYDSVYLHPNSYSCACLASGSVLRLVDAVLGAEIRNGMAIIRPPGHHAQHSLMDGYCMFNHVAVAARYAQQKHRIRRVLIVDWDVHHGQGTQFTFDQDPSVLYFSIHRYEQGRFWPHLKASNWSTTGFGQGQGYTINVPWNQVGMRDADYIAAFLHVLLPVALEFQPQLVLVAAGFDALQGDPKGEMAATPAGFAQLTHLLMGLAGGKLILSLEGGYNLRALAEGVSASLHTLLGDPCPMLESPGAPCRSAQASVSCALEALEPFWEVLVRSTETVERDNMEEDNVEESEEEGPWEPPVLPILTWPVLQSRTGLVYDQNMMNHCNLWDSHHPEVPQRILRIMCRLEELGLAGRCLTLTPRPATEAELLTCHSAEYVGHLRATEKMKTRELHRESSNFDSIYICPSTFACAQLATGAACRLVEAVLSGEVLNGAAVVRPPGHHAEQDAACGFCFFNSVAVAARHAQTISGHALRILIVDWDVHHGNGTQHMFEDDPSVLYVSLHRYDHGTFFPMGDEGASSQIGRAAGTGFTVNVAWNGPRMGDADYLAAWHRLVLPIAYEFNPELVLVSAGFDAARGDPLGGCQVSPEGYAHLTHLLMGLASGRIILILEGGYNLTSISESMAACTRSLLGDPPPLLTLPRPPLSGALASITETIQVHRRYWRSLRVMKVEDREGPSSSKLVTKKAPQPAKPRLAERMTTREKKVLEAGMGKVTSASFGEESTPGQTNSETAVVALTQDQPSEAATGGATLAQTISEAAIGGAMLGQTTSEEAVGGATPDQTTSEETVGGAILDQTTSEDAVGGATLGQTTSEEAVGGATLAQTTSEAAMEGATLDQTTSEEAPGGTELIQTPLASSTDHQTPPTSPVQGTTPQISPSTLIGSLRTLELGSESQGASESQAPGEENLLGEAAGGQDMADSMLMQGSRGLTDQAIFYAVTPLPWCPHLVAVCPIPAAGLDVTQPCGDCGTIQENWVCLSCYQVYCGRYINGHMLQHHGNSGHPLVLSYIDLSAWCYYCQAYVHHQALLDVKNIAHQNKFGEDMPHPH

Hepatitis C virus = experiment: Antiviral activity against HCV infected in human Huh-luc/neo7 cells after 72 hrs by luciferase assay; type: functional, organism-based, Hepacivirus hominis
[2] = Cytotoxicity against human HuH7 cells transfected with luc/neo plasmid assessed as cell viability after 72 hrs by MTT method; type: cell-based, Huh-7
[3] = Selectivity index, ratio of CC50 for human HuH7 cells transfected with luc/neo plasmid to EC50 for HCV infected in human Huh-luc/neo7 cells; parameters: species or system Huh-7
[4] = target: T1, Protein deacetylase HDAC6 (Homo sapiens); experiment: Inhibition of HDAC6 in human Huh-luc/neo7 cells assessed as alpha-tubulin acetylation at 20 to 100 uM by Western blotting analysis; type: cell-based
[5] = target: T1, Protein deacetylase HDAC6 (Homo sapiens); experiment: Inhibition of HDAC6 in human Huh-luc/neo7 cells assessed as alpha-tubulin acetylation at 5 to 60 uM by Western blotting analysis; type: cell-based

inhibition [1] | EC50 (Hepatitis C virus) [µM] | HDAC6 inhibition (active/not active) [4] | inhibition [5] | SMILES | CC50 at 72 h [2] [µM] | Ratio CC50/EC50 [3]
Active | – | – | – | O=C(NO)c1ccc(Cl)cc1 | – | –
– | 8 | – | – | O=C(NO)c1ncccc1Cl | 800 | 100
– | 17 | Active | – | O=C(NO)c1ccncc1 | 210 | 12
– | 25 | Active | – | O=C(NO)c1cccnc1 [NICOXAMAT] | 450 | 18
– | 5 | – | – | COc1cccnc1C(=O)NO | 880 | 180
– | – | – | Active | Cc1ccc(C(=O)NO)cc1 | – | –
– | 240 | – | – | CN(O)C(=O)c1ccccn1 | > 1000 | >4
– | 17 | inactive | – | O=C(NO)c1cc[n+]([O-])cc1 | > 1000 | >59
– | 12 | – | – | Cn1cccc(C(=O)NO)c1=O | > 1000 | >83
– | – | Active | – | O=C(NO)c1ccccc1 | – | –
– | > 1000 | – | – | CN(O)C(=O)c1cccc[n+]1[O-] | > 1000 | –
– | > 1000 | – | – | CONC(=O)c1ccccn1 | > 1000 | –
– | 20 | Active | – | O=C(NO)c1ccc[n+]([O-])c1 | > 1000 | >50

SMILES | inhibition [1] | EC50 (Hepatitis C virus) [µM] | HDAC6 inhibition (active/not active) [4] | inhibition [5] | CC50 at 72 h [2] [µM] | Ratio CC50/EC50 [3]
O=C(NO)c1ccccn1 | – | 30 | inactive | – | 710 | 24
O=C(NO)c1cccc[n+]1[O-] | – | 6 | inactive | – | 900 | 150
